Consider three compounds from US20240226211A9, “SEAWEED EXTRACTS, ISOLATED COMPOUNDS, AND METHODS OF TREATMENT” (University of Florida Research Foundation, Incorporated, priority 2017, published 2024).

Series [1] has as its system ARE-luciferase reporter (human NQO1-ARE) in IMR-32 cells. Kind of series: ARE-luc reporter assay in IMR-32 cells. The class given is cell-based. The settings on record: relative to Compounds 1 and 2; assay not specified. From the text:
The ARE-luciferase reporter construct (ARE-luc) contains the core sequence of human NQO1-ARE1. The mock plasmid (pcDNA3-mRFP) was purchased from Addgene (plasmid 13032). The following plasmids were reported by Zhang et a/.2003 [Zhang, D. D., and Hannink, M. (2003) Distinct cysteine residues in Keap1 are required for Keap1-dependent ubiquitination of Nrf2 and for stabilization of Nrf2 by chemopreventive agents and oxidative stress. Mol. Cell. Biol. 23, 8137-8151]. The Keap1-CBD plasmid carries the entire open reading frame (ORF) of human Keap1 fused to the chitin binding domain (CBD) of the Bacillus circulans chitinase A1 gene upstream of the Keap1 stop codon. Oligonucleotide-directed mutagenesis was used to generate the Keap1-C151S-CBD and Keap1-C288S-CBD plasmids. The HA-Cul3 plasmid was constructed by fusing an N-terminal hemagglutinin (HA) tag with a cDNA sequence coding for amino acids 1-380 of human Cul3 gene. The Gal4-Neh2 expression vector contains the codons for the first 97 amino acids (Neh2 domain) of human Nrf2 fused to the ORF of the Gal4 DNA-binding domain
An ARE-luciferase reporter plasmid and CMV-GFP plasmid (to monitor transfection efficiency) were co-transfected into a human androgen-sensitive prostate cancer cell line, LNCaP (6×10^4 cells/well), and a human neuroblastoma cell line, IMR-32 (3×10^4 cells/well), using Fugene® HD (Roche Diagnostics) in 96-well format. […] J Biol Chem. 2002; 277:388-394; Lee J M, Hanson J M, Chu W A, Johnson J A. Phosphatidylinositol 3-kinase, not extracellular signal-regulated kinase, regulates activation of the antioxidant-responsive element in IMR-32 human neuroblastoma cells. […] After 24 hours of incubation, cells were treated with extracts from Cymopolia barbata, a negative control (DMSO, 1%, v/v), and a positive control ([…] sulforaphane, SF, and tert-butylhydroquinone, tBHQ, respectively.) 24 hours post-treatment, luciferase activity was detected using BriteLite detection reagent (PerkinElmer). […]

Series [2] is classed as physicochemical. The procedure:
Silver oxide (14.2 mg) was added to a solution of cymopol 1 (6.6 mg) in dichloromethane (2.5 mL). The reaction mixture was stirred at room temperature for 15 min before being evaporated in vacuum. The crude product was purified by preparative TLC plate (ethyl acetate/hexane 1:4, v/v, Rf 0.8) to give 4.92 mg product 5 (75% yield).

Series [3] has as its target T1, full-length human recombinant KEAP1 (Homo sapiens, UniProt Q14145).
T1 construct: cysteine residues of full-length human recombinant KEAP1 in vitro
Put plainly: LC-MS/MS mapping of cysteine adducts on recombinant KEAP1. Format: binding. The note with it: excess CymQ. From the text:
To obtain a global picture of cysteine modification of Keap1, rather than focusing on known functionally relevant residues, a proteomics approach was utilized, monitoring the effect of activated cymopol (CymQ) on cysteine residues of full-length human recombinant KEAP1 in vitro, similarly as described [Wang R, et al. (2013) In vitro and in vivo characterization of a tunable dual-reactivity probe of the Nrf2-ARE pathway. ACS Chem Biol 8(8):1764-1774; Hur W, et al. (2010) A small-molecule inducer of the antioxidant response element. Chem Biol 17(5):537-547]. Briefly, KEAP1 was treated with excess CymQ and adducts were mapped by LC-MS/MS in three separate experiments (five different conditions) using DTT, chymotrypsin and trypsin as the variables for different sample preparations, in order to capture more potential adducts. The most abundant modification observed was a mass increase of 242, resulting from an addition-elimination reaction of 5 (FIGS. 54 and 55) with loss of bromine, which is unique to CymQ compared with tBQ. Additional representative spectra for different types of tags can be found in SI Appendix, Fig. S4. […] Most ARE activators belong to class 1 of this cysteine code where Cys151 is readily modified, although contradictory results are shown for these compounds based on the experimental conditions used. […]

For series [4], the system named is NQO1. Kind of series: qPCR of NQO1 transcript in IMR-32 cells. Format: cell-based, human. The settings on record: 12 h. The procedure: The cells were seeded in 6-well format (see immunoblot) and treated with a solvent control (DMSO, 1%, v/v), isolated compounds, or extracts for 12 h. The RNeasy Mini Kit (Qiagen) was used to collect total RNA from cells, while for mouse tissue, TRIzol reagent (Invitrogen) was used. In each case, total RNAs (2 μg) were reverse-transcribed into cDNAs, which were used as templates for TaqMan gene expression assay (Applied Biosystems) and detected using the 7300 Real-Time PCR System (Applied Biosystems). Each qPCR sample was tested in triplicate as a 25 μL total reaction volume (12.5 μL of Taqman 2× universal master mix, 1.25 μL of a 20× TaqMan gene expression assay probe, 1 μL of the above cDNA, and 10.25 μL of RNase-free sterile water). The qPCR method was designed as following: 50° C. for 2 min, 95° C. for 10 min, and 40 cycles of 95° C. for 15 s and 60° C. for 1 min. Endogenous controls used included GAPDH for IMR-32 cells and β-actin to normalize for RAW264.7 cells and mouse tissues.

T1 sequence (Q14145 whole entry): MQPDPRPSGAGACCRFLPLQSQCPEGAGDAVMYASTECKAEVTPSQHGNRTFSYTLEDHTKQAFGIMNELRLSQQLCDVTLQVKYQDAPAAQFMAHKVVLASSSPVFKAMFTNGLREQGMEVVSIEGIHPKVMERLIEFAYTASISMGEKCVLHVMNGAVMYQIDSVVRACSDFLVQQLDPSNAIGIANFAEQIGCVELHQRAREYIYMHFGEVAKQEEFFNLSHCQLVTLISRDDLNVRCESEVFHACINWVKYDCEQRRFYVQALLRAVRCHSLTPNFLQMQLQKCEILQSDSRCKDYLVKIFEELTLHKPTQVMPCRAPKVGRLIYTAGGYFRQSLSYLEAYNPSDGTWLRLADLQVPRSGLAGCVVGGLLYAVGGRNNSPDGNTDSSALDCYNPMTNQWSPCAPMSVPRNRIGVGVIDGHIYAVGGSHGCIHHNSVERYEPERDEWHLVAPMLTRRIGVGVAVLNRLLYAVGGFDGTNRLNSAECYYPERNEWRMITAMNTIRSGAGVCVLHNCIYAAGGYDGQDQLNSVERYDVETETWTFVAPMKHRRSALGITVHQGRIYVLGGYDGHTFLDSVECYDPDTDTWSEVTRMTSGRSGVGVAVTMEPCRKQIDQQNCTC

Regarding `CC12CCC(Br)C(C)(C)C1Cc1cc(O)c(Br)cc1O2` (stereo not drawn) [Compound 3, 2,6-dibromo-1,1,4a-trimethyl-2,3,4,4a,9,9a-hexahydro-1H-xanthen-7-ol], the anti-oxidant efficacy entry in series [1] was “reduced anti-oxidant efficacy”.
`C=C1CCC(Br)C(C)(C)C1Cc1cc(OC)c(Br)cc1O` (stereo not drawn) [Compound 4, 5-bromo-2-((3-bromo-2,2-dimethyl-6-methylenecyclohexyl)methyl)-4-methoxyphenol]: the anti-oxidant efficacy result in series [1] is given as “reduced anti-oxidant efficacy”.
In the case of cymopol quinone [Compound 5], in series [2], the stability in air entry is on record as “not stable in air”. Also, in series [3], the “alkylation of highly reactive cysteines including Cys151” value is “failed to alkylate” and the “number of KEAP1 cysteines modified” value stood at 10. The “Nqo1 transcript induction by quinone versus hydroquinone counterpart” value in series [4] was “retained the bioactivity”.
